In ChEMBL document CHEMBL1136143, “Synthesis and activity of novel benzoxazole derivatives of mannopeptimycin glycopeptide antibiotics” (2003) one finds MIC data, which are given here for two compounds.

In brackets after ≈: the same amount, converted by molar mass.

By MIC is commonly meant the least concentration at which growth counts as inhibited.

One test relates to Enterococcus sp. Briefly: In vitro minimum inhibitory concentration against Enterococcus species (11 strains, including VRE). Type of test: functional.
Test [1] has as its system Staphylococcus aureus. Briefly: In vitro minimum inhibitory concentration against Staphylococcus aureus. The class given is functional.
Test [2] concerns Enterococcus faecalis. Put plainly: In vitro minimum inhibitory concentration against vancomycin-susceptible Enterococcus faecalis (GC 4555). The class given is functional.
Test [3] concerns Enterococcus faecalis. Put plainly: In vitro minimum inhibitory concentration against vancomycin-resistant Enterococcus faecalis (GC 2242). Type of test: functional.
Test [4] relates to Enterococcus faecalis. Put plainly: In vitro minimum inhibitory concentration against vancomycin-resistant Enterococcus faecalis (GC 3059). Type of test: functional.
In test [5] the test system is Enterococcus faecalis. Briefly: In vitro minimum inhibitory concentration against vancomycin-resistant Enterococcus faecalis (GC 6189). The class given is functional.
Test [6] concerns Enterococcus faecalis. Briefly: In vitro minimum inhibitory concentration against vancomycin-susceptible Enterococcus faecalis (GC 2691). The class given is functional.
Test [7] deals with Enterococcus faecalis. Put plainly: In vitro minimum inhibitory concentration against vancomycin-susceptible Enterococcus faecalis (GC 4552). The class given is functional.
For test [8], the system named is Enterococcus faecalis. Put plainly: In vitro minimum inhibitory concentration against vancomycin-susceptible Enterococcus faecalis (GC 4553). Type of test: functional.
In a further test the test system is Micrococcus luteus. Put plainly: In vitro minimum inhibitory concentration against Micrococcus lutea (GC 4562). Type of test: functional.
Test [9] has as its system Staphylococcus aureus. Briefly: In vitro minimum inhibitory concentration against Staphylococcus aureus (10strains, including MRSA). The class given is functional.
In test [10] the test system is Staphylococcus aureus. Briefly: In vitro minimum inhibitory concentration against Methicillin-resistant Staphylococcus aureus (GC 1131). Type of test: functional.
The test system of test [11] is Staphylococcus aureus. Put plainly: In vitro minimum inhibitory concentration against Methicillin-resistant Staphylococcus aureus (GC 4542). The class given is functional.
Test [12] deals with Staphylococcus aureus. Put plainly: In vitro minimum inhibitory concentration against Methicillin-resistant Staphylococcus aureus(GC 4541). Type of test: functional.
For test [13], the system named is Staphylococcus aureus. Put plainly: In vitro minimum inhibitory concentration against Methicillin-susceptible Staphylococcus aureus (GC 2216). The class given is functional.
Test [14] relates to Staphylococcus aureus. Briefly: In vitro minimum inhibitory concentration against Methicillin-susceptible Staphylococcus aureus (GC 4543). Type of test: functional.
Test [15] has as its system Staphylococcus aureus. Briefly: In vitro minimum inhibitory concentration against Methicillin-susceptible Staphylococcus aureus(GC 4544). Type of test: functional.
Test [16] relates to Staphylococcus aureus. Put plainly: In vitro minimum inhibitory concentration against glycopeptide tntermediate Staphylococcus aureus (GC 3051). Type of test: functional.
Test [17] concerns Staphylococcus aureus. Briefly: In vitro minimum inhibitory concentration against glycopeptide tntermediate Staphylococcus aureus (GC 3066). Type of test: functional.
In test [18] the test system is Staphylococcus haemolyticus. Put plainly: In vitro minimum inhibitory concentration against methicillin-resistant Coagulase-negative Staphylococci (MRCNS) (GC 4547)). The class given is functional.
In test [19] the test system is Streptococcus pneumoniae. Briefly: In vitro minimum inhibitory concentration against Penicillin resistant Streptococcus pneumoniae (GC 1894). Type of test: functional.
Test [20] relates to Streptococcus pneumoniae. Put plainly: In vitro minimum inhibitory concentration against Penicillin susceptible Streptococcus pneumoniae (GC 6242). Type of test: functional.
For a further test, the system named is Streptococcus pyogenes. Put plainly: In vitro minimum inhibitory concentration against Streptococcus pyogenes (GC 4563). The class given is functional.
Test [21] deals with Staphylococcus haemolyticus. Put plainly: In vitro minimum inhibitory concentration against methicillin-resistant Coagulase-negative Staphylococci (MRCNS) hemolyticu (GC 4546)). The class given is functional.
The subject of test [22] is Staphylococcus haemolyticus. Put plainly: In vitro minimum inhibitory concentration against methicillin-susceptible Coagulase-negative Staphylococci (MSCNS) (GC 4549)). Type of test: functional.
Test [23] relates to Staphylococcus haemolyticus. Briefly: In vitro minimum inhibitory concentration against methicillin-susceptible Coagulase-negative Staphylococci (MSCNS) (GC 4551). Type of test: functional.
The subject of test [24] is Staphylococcus haemolyticus. Put plainly: In vitro minimum inhibitory concentration against methicillin-susceptible Coagulase-negative Staphylococci (MSCNS) (GC 6257). The class given is functional.
In a further test the test system is Streptococcus. Briefly: In vitro minimum inhibitory concentration against Streptococcus Species (5 strains, including PRSP). Type of test: functional.
For a further test, the system named is Bacillus cereus. Briefly: In vitro minimum inhibitory concentration against Bacillus cereus (GC 4561) assay organism. Type of test: functional.
Test [25] concerns Staphylococcus haemolyticus. Briefly: In vitro minimum inhibitory concentration against methicillin-resistant Coagulase-negative Staphylococci (MRCNS) (GC 4548)). The class given is functional.
In test [26] the test system is Staphylococcus aureus. Put plainly: In vitro minimum inhibitory concentration against Methicillin-susceptible Staphylococcus aureus(GC 4545). The class given is functional.
Test [27] has as its system Enterococcus faecalis. Briefly: In vitro minimum inhibitory concentration against vancomycin-susceptible Enterococcus faecalis (GC 4554). Type of test: functional.
The subject of another test is Streptococcus agalactiae. Put plainly: In vitro minimum inhibitory concentration against Streptococcus agalactiae (GC4564).
The subject of test [28] is Enterococcus faecium. Put plainly: In vitro minimum inhibitory concentration against vancomycin-resistant Enterococcus faecium (GC 2243).
In test [29] the test system is Enterococcus faecium. Briefly: In vitro minimum inhibitory concentration against vancomycin-resistant Enterococcus faecium (GC 4558).
The test system of test [30] is Enterococcus faecium. Put plainly: In vitro minimum inhibitory concentration against vancomycin-susceptible Enterococcus faecium (GC 4556).
The subject of test [31] is Enterococcus faecium. Briefly: In vitro minimum inhibitory concentration against vancomycin-susceptible Enterococcus faecium (GC 4557).
The subject of test [32] is Streptococcus pneumoniae. Briefly: In vitro minimum inhibitory concentration against Penicillin susceptible Streptococcus pneumoniae (GC 4565).

As to `C[C@@H](c1ccccc1)[C@@H]1NC(=O)CNC(=O)[C@H](CO)NC(=O)[C@@H]([C@@H](O)[C@@H]2CN=C(N)N2[C@H]2O[C@H](CO)[C@@H](O)[C@H](O)[C@@H]2O)NC(=O)[C@H]([C@H](O)[C@@H]2CN=C(N)N2)NC(=O)[C@@H](Cc2ccc(O)cc2)NC1=O`, the MIC against Enterococcus sp. turned out to be 32 µg/mL (≈ 33 µM); in the test on Staphylococcus aureus [1], 64 µg/mL (≈ 65.9 µM).

Turning to `C[C@@H](c1ccccc1)[C@@H]1NC(=O)CNC(=O)[C@H](CO)NC(=O)[C@@H]([C@@H](O)[C@@H]2CN=C(N)N2[C@H]2O[C@H](CO)[C@@H](O)[C@H](O)[C@@H]2O)NC(=O)[C@H]([C@H](O)[C@@H]2CN=C(N)N2)NC(=O)[C@@H](Cc2ccc3nc(-c4ccc(N(C)C)cc4)oc3c2)NC1=O`, the MIC in the test with Enterococcus sp. was found to be 8 µg/mL (≈ 7.17 µM); with Enterococcus faecalis [2], 32 µg/mL (≈ 28.7 µM); with Enterococcus faecalis [3], 32 µg/mL (≈ 28.7 µM); in the test with Enterococcus faecalis [4], 64 µg/mL (≈ 57.4 µM); against Enterococcus faecalis [5] it was 32 µg/mL (≈ 28.7 µM); in the test on Enterococcus faecalis [6] it was 32 µg/mL (≈ 28.7 µM). For the same compound, the MIC in the test on Enterococcus faecalis [7] worked out at 64 µg/mL (≈ 57.4 µM); against Enterococcus faecalis [8], 16 µg/mL (≈ 14.3 µM); in the test with Micrococcus luteus, 2 µg/mL (≈ 1.79 µM); in the test on Staphylococcus aureus [9], 8 µg/mL (≈ 7.17 µM); against Staphylococcus aureus [10], 8 µg/mL (≈ 7.17 µM); against Staphylococcus aureus [11] it was 8 µg/mL (≈ 7.17 µM). For the same compound, the MIC against Staphylococcus aureus [12], against Staphylococcus aureus [13], with Staphylococcus aureus [14], in the test with Staphylococcus aureus [15], against Staphylococcus aureus [16] and against Staphylococcus aureus [17] was 8 µg/mL (≈ 7.17 µM) in each case. The MIC in test [18] was 4 µg/mL (≈ 3.59 µM); in the test on Streptococcus pneumoniae [19] it was 32 µg/mL (≈ 28.7 µM); in the test on Streptococcus pneumoniae [20], 32 µg/mL (≈ 28.7 µM); against Streptococcus pyogenes, 16 µg/mL (≈ 14.3 µM); in test [21], 4 µg/mL (≈ 3.59 µM); in test [22], 2 µg/mL (≈ 1.79 µM). In addition, the MIC in [23] stood at 8 µg/mL (≈ 7.17 µM); in test [24], 4 µg/mL (≈ 3.59 µM); in the test on Streptococcus, 16 µg/mL (≈ 14.3 µM); against Bacillus cereus it was 32 µg/mL (≈ 28.7 µM); in test [25], 4 µg/mL (≈ 3.59 µM); in the test with Staphylococcus aureus [26] it was 8 µg/mL (≈ 7.17 µM). In addition, the MIC was found to be 32 µg/mL (≈ 28.7 µM) against Enterococcus faecalis [27]; 32 µg/mL (≈ 28.7 µM) with Streptococcus agalactiae; 16 µg/mL (≈ 14.3 µM) in the test with Enterococcus faecium [28]; 16 µg/mL (≈ 14.3 µM) in the test on Enterococcus faecium [29]; 64 µg/mL (≈ 57.4 µM) in the test with Enterococcus faecium [30]; 8 µg/mL (≈ 7.17 µM) in the test with Enterococcus faecium [31]. Moreover, the MIC in the test with Streptococcus pneumoniae [32] turned out to be 32 µg/mL (≈ 28.7 µM).
